This passage reports melting point results from patent US20030055046A1, “Novel pyrido cyclohexenyl phenyl carboxamides tocolytic oxytocin receptor antagonists” (Wyeth, priority 2001, published 2003).

The structures appear in SMILES notation. Structures can show the parent of a compound that is named as a salt.

In general, melting point refers to the temperature of the solid-liquid transition. `COc1cc(C2=CCCCC2)c(Cl)cc1C(=O)N1Cc2ccc(C(=O)N(C)Cc3cccnc3)n2Cc2ccccc21` (as salt: tartaric acid salt) (hydrate or solvate) [Example 2, 10-(5-Chloro-4-cyclohex-1-en-1-yl-2-methoxybenzoyl)-N-methyl-N-(pyridin-3-ylmethyl)-10,11-dihydro-5H-pyrrolo[2,1-c][1,4]benzodiazepine-3-carboxamide L-(+)-tartaric acid salt hemihydrate] gave a melting point of 138 to 177 °C.
